Experimental data: US20240358861A1, “COMPOSITIONS AND METHODS OF FLUORESCEIN SODIUM FOR EARLY DIAGNOSIS OF CERVICAL CANCER” (THE MOEIN FAMILY TRUST, priority 2023, published 2024)
Values belong to the compound of their own block, whether it stands above or below them.

Experiments:
[1] = tested on: cervix (cervical lesions); assay: Colposcopy with AA then FNa staining, histopathology (biopsy) as reference diagnosis; format: in vivo, human; conditions: for Accuracy: correlation of staining with biopsy report; for Sensitivity / Specificity: diagnosis of high grade SIL or worse per histopathology; for Number of patients, stain negative, Total / Number of patients, stain positive, Total: all biopsies
Protocol: The FNa formulation is applied in 3 steps, each using either a cotton swab or plastic pipette for delivery and continuing until all solution is dispensed: a) Pre-rinse with 10 mL of normal saline to remove cervical mucus. b) Apply 10 mL of a FNa delivery solution over the cervix. Solution in the posterior cul-de-sac is picked up with the pipette and resprayed, at least once, then discarded. c) after imaging or diagnosis, post-rinse with 10 mL of normal saline.

cervix = assay: Staining properties of FNa versus AA when tested; parameters: species or system human; conditions: in vivo
Description: In some embodiments, FNa staining may be observed with an unaided eye. Using FNa as a staining agent enables use in low resource settings where access to a colposcope is not possible.

cervical lesions (CIN) = assay: Lesion grade stained, shown by p16, Ki67 and c-myc FISH staining of specimens; parameters: species or system human

Burning sensation (cervix): burning sensation that AA causes
Compound: CC(=O)O [AA, acetic acid]
More false positives than the other stain ([1]; AA versus FNa, patients with low grade SIL per histopathology): three
Number of patients Acetic acid positive ([1]; No pap smear (n = 5)): 5
Number of patients Acetic acid positive ([1]; Pap smear High grade (n = 22)): 20
Number of patients Acetic acid positive ([1]; Pap smear Invasive (n = 5)): 5
Number of patients Acetic acid positive ([1]; Pap smear Low grade (n = 46)): 44
Accuracy [1]: Accuracy = 94%
Sensitivity [1]: 94%
Specificity [1]: 43%
Missed high grade lesions ([1]; in vivo): Neither AA nor FNa missed any high grade lesions
Number of patients, stain negative, Total [1]: 4
Number of patients, stain negative, biopsy Ca, HG, LG [1]: 1
Number of patients, stain positive, Total [1]: 74
Number of patients, stain positive, biopsy Ca, HG, LG [1]: 70
Lesion grades stained (cervical lesions (CIN)): stains any lesion from CIN 1 and worse

Burning sensation (cervix): did not cause the same burning sensation
Compound: O=C1OC2(c3ccc(O)cc3Oc3cc(O)ccc32)c2ccccc21 [FNa, Fluorescein (3′,6′-dihydrospiro[isobenzofuran-1(3H),9′-[9H]xanthene]-3-one) sodium]
Number of patients ([1]; No pap smear (n = 5), stain Negative, Benign biopsy n = 6): 0
Number of patients ([1]; No pap smear (n = 5), stain Negative, High grade biopsy (n = 26)): 0
Number of patients ([1]; No pap smear (n = 5), stain Negative, Invasive (n = 5)): 0
Number of patients ([1]; No pap smear (n = 5), stain Negative, Low grade Biopsy (n = 41)): 1
Number of patients ([1]; No pap smear (n = 5), stain Negative, all): 1
Number of patients ([1]; No pap smear (n = 5), stain Positive, Benign biopsy n = 6): 0
Number of patients ([1]; No pap smear (n = 5), stain Positive, High grade biopsy (n = 26)): 1
Number of patients ([1]; No pap smear (n = 5), stain Positive, Invasive (n = 5)): 0
Number of patients ([1]; No pap smear (n = 5), stain Positive, Low grade Biopsy (n = 41)): 3
Number of patients ([1]; No pap smear (n = 5), stain Positive, all): 4
Number of patients ([1]; Pap smear High grade (n = 22), stain Negative, Benign biopsy n = 6): 2
Number of patients ([1]; Pap smear High grade (n = 22), stain Negative, High grade biopsy (n = 26)): 0
Number of patients ([1]; Pap smear High grade (n = 22), stain Negative, Invasive (n = 5)): 0
Number of patients ([1]; Pap smear High grade (n = 22), stain Negative, Low grade Biopsy (n = 41)): 0
Number of patients ([1]; Pap smear High grade (n = 22), stain Negative, all): 2
Number of patients ([1]; Pap smear High grade (n = 22), stain Positive, Benign biopsy n = 6): 0
Number of patients ([1]; Pap smear High grade (n = 22), stain Positive, High grade biopsy (n = 26)): 12
Number of patients ([1]; Pap smear High grade (n = 22), stain Positive, Invasive (n = 5)): 3
Number of patients ([1]; Pap smear High grade (n = 22), stain Positive, Low grade Biopsy (n = 41)): 5
Number of patients ([1]; Pap smear High grade (n = 22), stain Positive, all): 20
Number of patients ([1]; Pap smear Invasive (n = 5), stain Negative, Benign biopsy n = 6): 0
Number of patients ([1]; Pap smear Invasive (n = 5), stain Negative, High grade biopsy (n = 26)): 0
Number of patients ([1]; Pap smear Invasive (n = 5), stain Negative, Invasive (n = 5)): 0
Number of patients ([1]; Pap smear Invasive (n = 5), stain Negative, Low grade Biopsy (n = 41)): 0
Number of patients ([1]; Pap smear Invasive (n = 5), stain Negative, all): 0
Number of patients ([1]; Pap smear Invasive (n = 5), stain Positive, Benign biopsy n = 6): 0
Number of patients ([1]; Pap smear Invasive (n = 5), stain Positive, High grade biopsy (n = 26)): 4
Number of patients ([1]; Pap smear Invasive (n = 5), stain Positive, Invasive (n = 5)): 1
Number of patients ([1]; Pap smear Invasive (n = 5), stain Positive, Low grade Biopsy (n = 41)): 0
Number of patients ([1]; Pap smear Invasive (n = 5), stain Positive, all): 5
Number of patients ([1]; Pap smear Low grade (n = 46), stain Negative, Benign biopsy n = 6): 4
Number of patients ([1]; Pap smear Low grade (n = 46), stain Negative, High grade biopsy (n = 26)): 0
Number of patients ([1]; Pap smear Low grade (n = 46), stain Negative, Invasive (n = 5)): 0
Number of patients ([1]; Pap smear Low grade (n = 46), stain Negative, Low grade Biopsy (n = 41)): 3
Number of patients ([1]; Pap smear Low grade (n = 46), stain Negative, all): 7
Number of patients ([1]; Pap smear Low grade (n = 46), stain Positive, Benign biopsy n = 6): 0
Number of patients ([1]; Pap smear Low grade (n = 46), stain Positive, High grade biopsy (n = 26)): 9
Number of patients ([1]; Pap smear Low grade (n = 46), stain Positive, Invasive (n = 5)): 1
Number of patients ([1]; Pap smear Low grade (n = 46), stain Positive, Low grade Biopsy (n = 41)): 29
Number of patients ([1]; Pap smear Low grade (n = 46), stain Positive, all): 39
Accuracy [1]: Accuracy = 94%
Sensitivity [1]: 94%
Specificity [1]: 86%
Number of patients, stain negative, Total [1]: 10
Number of patients, stain negative, biopsy Ca, HG, LG [1]: 4
Number of patients, stain positive, Total [1]: 68
Number of patients, stain positive, biopsy Ca, HG, LG [1]: 67
